Values quoted from earlier work in patent US9822391B2, “Methods for monitoring methotrexate therapy” (priority 2010, dated 2017).

Columns and labels:
[1] = approximately 5-10% of individuals who do not metabolize MTX effectively; within the first few hours following once weekly administration; Chladek et al., 1998
AICAR transformylase = AICAR transformylase (Homo sapiens, UniProt P31939); conditions: relative to MTX; Allegra et al., 1987
Chain of AICAR transformylase (P31939 whole entry, species assumed): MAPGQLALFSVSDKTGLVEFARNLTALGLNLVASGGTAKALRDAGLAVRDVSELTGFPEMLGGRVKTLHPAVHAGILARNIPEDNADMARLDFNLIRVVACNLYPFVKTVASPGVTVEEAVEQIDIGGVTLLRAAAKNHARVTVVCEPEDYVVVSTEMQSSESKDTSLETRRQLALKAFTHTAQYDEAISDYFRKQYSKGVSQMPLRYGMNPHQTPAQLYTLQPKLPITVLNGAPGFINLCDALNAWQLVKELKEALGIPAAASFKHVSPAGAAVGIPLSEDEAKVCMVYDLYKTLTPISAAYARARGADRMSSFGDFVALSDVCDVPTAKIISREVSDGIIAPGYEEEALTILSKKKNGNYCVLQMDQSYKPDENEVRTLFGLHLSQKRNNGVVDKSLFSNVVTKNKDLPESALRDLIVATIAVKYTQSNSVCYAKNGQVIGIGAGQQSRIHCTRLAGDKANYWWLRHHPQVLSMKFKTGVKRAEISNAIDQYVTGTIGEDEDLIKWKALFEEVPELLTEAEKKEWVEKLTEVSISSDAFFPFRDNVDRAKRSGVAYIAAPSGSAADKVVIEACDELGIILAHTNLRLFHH

| SMILES | excretion of the drug in urine [1] | fold more potent than MTX itself against AICAR transformylase (AICAR transformylase) [fold] |
| --- | --- | --- |
| CN(Cc1cnc2nc(N)nc(N)c2n1)c1ccc(C(=O)N[C@@H](CCC(=O)O)C(=O)O)cc1 [MTX, Methotrexate] | virtually the totality of the drug excreted unchanged in the urine | – |
| CN(Cc1cnc2nc(N)nc(N)c2n1)c1ccc(C(=O)NC(CCC(=O)NC(CCC(=O)NC(CCC(=O)NC(CCC(=O)NC(CCC(=O)O)C(=O)O)C(=O)O)C(=O)O)C(=O)O)C(=O)O)cc1 (centres unmarked) [pentaglutamylated form of MTX] | – | 2500 |
